#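 Step 1: Grow cells in 96-well plates. Step 2: Expose to compound for 48 hours at 5 concentrations. Step 3: Interpolate endpoints linearly; if unreached, use highest concentration. Abbreviation: GI50, concentration required for 50% inhibition of growth.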 Calls of active or inactive are those of the source. Cut-off read from the data, not from the text of the source: active = GI50 up to about 1.1 µM and inactive = higher.
# Columns and labels:
# Experiment in all cases: DTP human tumour cell line panel, 48 h
# [1] = system: BT-549
# [2] = system: DMS-114
# [3] = system: KM-20L2
# [4] = system: LXFL 529
# [5] = system: M19-MEL
# [6] = system: SNB-78
# [7] = system: XF498
# [8] = system: HOP-18
# [9] = system: RXF 631
smiles,measurement,setting,value
O=C(Nc1ccc2ncccc2c1)c1cc2c(cc1Cl)Sc1nccn1S2(=O)=O,GI50,[1],15.6 µM (inactive)
Oc1[nH]c(Nc2cccc(CC(F)(F)F)c2)nc2ncnc1-2,GI50,[1],> 100 µM (inactive)
CC(=O)/C=c1\[nH]/c(=C\C=C\c2ccccc2)c(=O)n1/C=C1\C(=O)Oc2ccccc2C1=O,GI50,[1],> 100 µM (inactive)
Cc1cc(C)nc(NC(P(=O)(O)O)P(=O)(O)O)n1,GI50,[1],> 100 µM (inactive)
Nc1cc(F)ccc1CC(=O)O,GI50,[1],79.3 µM (inactive)
Cc1ccc2c(c1C)CC1(Cc3ccc(C)c(C)c3C1=O)C2=O (stereo not given),GI50,[1],> 100 µM (inactive)
CC(C)c1cc(CN(C)C)c(O)c(C(C)(C)C)c1,GI50,[1],37.5 µM (inactive)
COc1ccc(/C=C(\C#N)c2nc3ccccc3c(=O)[nH]2)cc1,GI50,[1],15.5 µM (inactive)
O=C1Nc2ccccc2Nc2nc3cccccc-3c21,GI50,[2],> 100 µM (inactive)
same,GI50,[3],> 100 µM (inactive)
same,GI50,[4],> 100 µM (inactive)
same,GI50,[5],> 100 µM (inactive)
same,GI50,[6],> 100 µM (inactive)
same,GI50,[7],> 100 µM (inactive)
Fc1ccc(C2SCc3nc4ccccc4n32)cc1 (stereo not given),GI50,[2],39.5 µM (inactive)
same,GI50,[8],< 0.01 µM (active)
same,GI50,[4],34.4 µM (inactive)
same,GI50,[5],41 µM (inactive)
same,GI50,[6],13.8 µM (inactive)
same,GI50,[7],27.8 µM (inactive)
CC(C)C12Cc3c(ccc4ccccc34)OC1(C)Oc1ccc3ccccc3c1C2 (stereo not given),GI50,[2],25.6 µM (inactive)
same,GI50,[3],> 100 µM (inactive)
same,GI50,[4],> 100 µM (inactive)
same,GI50,[6],> 100 µM (inactive)
same,GI50,[7],> 100 µM (inactive)
CCc1cc(Cc2cc(CC)c(NC(=O)C(=O)Cc3ccccn3)c(CC)c2Cl)c(Cl)c(CC)c1NC(=O)C(=O)Cc1ccccn1,GI50,[2],96.8 µM (inactive)
same,GI50,[8],> 100 µM (inactive)
same,GI50,[3],> 100 µM (inactive)
same,GI50,[4],53 µM (inactive)
same,GI50,[5],> 100 µM (inactive)
same,GI50,[6],> 100 µM (inactive)
same,GI50,[7],> 100 µM (inactive)
CCOC(=O)c1sc2nc(SC)nc3c2c1N=CN3c1ccccc1Cl,GI50,[1],26.7 µM (inactive)
Cc1ccc(Nc2nc(C)c(C(/C=C/c3ccc(/C=C/C(=N/NC(=O)C[n+]4ccccc4)c4sc(Nc5ccc(C)cc5[N+](=O)[O-])nc4C)cc3)=N\NC(=O)C[n+]3ccccc3)s2)c([N+](=O)[O-])c1,GI50,[2],92.9 µM (inactive)
same,GI50,[8],7.96 µM (inactive)
same,GI50,[3],> 100 µM (inactive)
same,GI50,[4],95.7 µM (inactive)
same,GI50,[5],> 100 µM (inactive)
same,GI50,[9],> 100 µM (inactive)
same,GI50,[6],91.2 µM (inactive)
Cn1c([C@H](C#N)c2ncccc2[N+](=O)[O-])nc2ccccc21,GI50,[1],> 100 µM (inactive)
C[C@@H](O)C(=O)N1[C@@H]2CC3CC[C@]2(CS1(=O)=O)C3(C)C,GI50,[1],> 100 µM (inactive)
CCOC(=O)/C(C#N)=C/c1[nH]c(C)c(C)c1C,GI50,[2],> 100 µM (inactive)
same,GI50,[8],> 100 µM (inactive)
same,GI50,[3],> 100 µM (inactive)
same,GI50,[4],> 100 µM (inactive)
same,GI50,[5],> 100 µM (inactive)
same,GI50,[6],> 100 µM (inactive)
same,GI50,[7],> 100 µM (inactive)
NCCNCc1c2ccccc2c(CNCCN)c2ccccc12,GI50,[2],11.6 µM (inactive)
same,GI50,[8],25.7 µM (inactive)
same,GI50,[3],10.3 µM (inactive)
same,GI50,[4],5.86 µM (inactive)
same,GI50,[5],14.8 µM (inactive)
same,GI50,[9],45.7 µM (inactive)
same,GI50,[6],12.7 µM (inactive)
C[C@@H](NC(=O)[C@@H]1C[C@]1(C)COC(=O)c1cc([N+](=O)[O-])cc([N+](=O)[O-])c1)c1cccc2ccccc12,GI50,[1],> 100 µM (inactive)
CN(C)CCNC(=O)c1ccc(NCCCN(C)CCCNc2ccc3c(=O)n(CCN(C)C)c(=O)n4c5ccccc5c(=O)c2c34)c2c(O)c3ccccc3nc12,GI50,[1],0.213 µM (active)
O=C1C(C(O)(C(F)(F)Cl)C(F)(F)Cl)CCC1C(O)(C(F)(F)Cl)C(F)(F)Cl (stereo not given),GI50,[1],4.35 µM (inactive)
O=C1CSC(/C=C/c2ccccc2)N1c1ccc(-n2c(-c3ccccc3)nc3ccccc3c2=O)cc1 (stereo not given),GI50,[1],> 100 µM (inactive)
CCSc1nc2sc(C)c(C)c2c(=O)n1-c1ccc(C(=O)O)cc1,GI50,[2],76.9 µM (inactive)
same,GI50,[8],10.2 µM (inactive)
same,GI50,[3],> 100 µM (inactive)
same,GI50,[5],60 µM (inactive)
same,GI50,[6],94 µM (inactive)
same,GI50,[7],75.7 µM (inactive)
O=CN1CCN(C(=O)c2cc(Cl)cc(Cl)c2)C1=S,GI50,[1],17.3 µM (inactive)
O=C(O)c1nc(-c2ccccn2)c(-c2ccccn2)nc1C(=O)O,GI50,[1],4.01 µM (inactive)
COc1ccc(Oc2cnn(C(Br)(Br)C(C)=O)c(=O)c2Br)cc1,GI50,[1],17.3 µM (inactive)
O=C1c2cccc3cc([N+](=O)[O-])cc(c23)C(=O)N1O,GI50,[1],28.6 µM (inactive)
COc1ccc(OC)c(-c2cc(=O)c3c(OC)c(OC)c(OC)c(OC)c3o2)c1,GI50,[1],33.2 µM (inactive)
C[C@H]1[C@H](C)CC[C@]2(C)CC[C@]3(C)C(=C[C@@H](O)[C@@H]4[C@@]5(C)[C@H](O)[C@@H](O)[C@H](O)C(C)(C)[C@@H]5CC[C@]43C)[C@H]12,GI50,[1],> 100 µM (inactive)
COc1cc([C@@H]2c3cc4c(cc3[C@@H](NCc3ccc(C#N)cc3)C3COC(=O)[C@@H]32)OCO4)cc(OC)c1O (stereo not given in full),GI50,[2],1.2 µM (inactive)
same,GI50,[8],95.3 µM (inactive)
same,GI50,[3],1.08 µM (active)
same,GI50,[4],4.5 µM (inactive)
same,GI50,[5],1.82 µM (inactive)
same,GI50,[6],4.74 µM (inactive)
same,GI50,[7],0.278 µM (active)
O=C(Nc1ccccc1)OCCN=c1c2ccccc2ccc2ccccc12,GI50,[1],13 µM (inactive)
